Results on 66 molecules are retold here after patent US20170066759A1, “AROMATIC 5-MEMBERED HETEROCYCLIC DERIVATIVE HAVING TRPV4-INHIBITING ACTIVITY” (Shionogi & Co., Ltd., priority 2012, published 2017).

Structures are written as SMILES. pIC50: −log10 of the molar value. A value given as a limit tells only on which side of the number the result lay.

In the first assay the target is T1, human TRPV4 (hTRPV4/CHO cells) (Homo sapiens, UniProt Q9HBA0).
T1 construct: expressed in transfected cells; host or cells: CHO-K1
T1 sequence (Q9HBA0 whole entry): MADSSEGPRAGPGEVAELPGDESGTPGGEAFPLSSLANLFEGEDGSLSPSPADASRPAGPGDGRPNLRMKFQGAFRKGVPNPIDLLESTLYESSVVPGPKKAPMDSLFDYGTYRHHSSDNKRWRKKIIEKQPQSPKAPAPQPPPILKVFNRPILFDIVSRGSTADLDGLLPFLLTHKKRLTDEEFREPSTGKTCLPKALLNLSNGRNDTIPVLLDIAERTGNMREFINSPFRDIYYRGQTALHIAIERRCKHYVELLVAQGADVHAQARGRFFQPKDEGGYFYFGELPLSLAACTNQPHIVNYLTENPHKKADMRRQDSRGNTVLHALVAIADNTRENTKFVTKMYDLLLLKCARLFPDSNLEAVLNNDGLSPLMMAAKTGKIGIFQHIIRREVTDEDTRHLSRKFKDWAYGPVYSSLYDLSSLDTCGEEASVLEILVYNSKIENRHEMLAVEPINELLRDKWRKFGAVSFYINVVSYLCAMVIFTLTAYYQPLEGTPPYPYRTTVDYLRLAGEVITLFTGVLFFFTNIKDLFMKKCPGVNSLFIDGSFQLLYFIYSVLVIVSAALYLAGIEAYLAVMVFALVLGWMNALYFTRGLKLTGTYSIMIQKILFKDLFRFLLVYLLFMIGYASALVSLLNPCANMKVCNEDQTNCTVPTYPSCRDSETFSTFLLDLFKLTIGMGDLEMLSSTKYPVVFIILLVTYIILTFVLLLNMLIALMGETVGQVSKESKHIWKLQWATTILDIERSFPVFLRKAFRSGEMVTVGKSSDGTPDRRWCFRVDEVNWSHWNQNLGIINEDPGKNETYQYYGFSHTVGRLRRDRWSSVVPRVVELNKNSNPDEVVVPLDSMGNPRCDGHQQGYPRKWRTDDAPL
The assay can be described thus: Test Example 1: TRPV4 inhibitory activity (IC50 value), 4α-PDD stimulation, Fluo4 calcium fluorescence (FLIPR TETRA). The class given is cell-based. Particulars: 1 μmol/L 4α-PDD, Fluo4-AM, read-out: TRPV4 inhibitory activity (IC50 value).
In general, pIC50 refers to the negative decadic logarithm of the IC50, by convention in mol/L. With `Cc1nc(CO)sc1-c1csc(NC(=O)C2CN(c3ccc(C(F)(F)F)cn3)C2)n1` [Compound I-297], the pIC50 is 7.66.

The assay is the same for the next values; noted with them: Test Example 1, 4α-PDD stimulation, read-out: Test 1 IC50.
With `Cc1nc(C)c(-c2csc(NC(=O)c3cccc(-c4ccccc4)n3)n2)s1` [Compound I-296], the negative logarithm of the IC50 (pIC50) is 5.10 to 6.00.

Regarding `Cc1nc(CO)sc1-c1csc(NC(=O)C2CN(c3ccc(C(F)(F)F)cn3)C2)n1` [Compound I-297], the negative logarithm of the IC50 (pIC50) is above 7.00.

As for `CCNC(=O)N1C[C@H](c2ccccc2)C[C@H]1C(=O)Nc1nc(-c2sc(C)nc2C)cs1` [Compound I-300], the negative-log IC50 (pIC50) was 5.10 to 6.00.

Consider `Cc1nc(C)c(-c2csc(NC(=O)[C@@H]3C[C@@H](c4ccccc4)CN3S(=O)(=O)C(C)C)n2)s1` [Compound I-301], for which the pIC50 is above 7.00.

Consider `O=C(Nc1nc(-c2sc(CO)nc2CO)cs1)C1CN(c2ccc(C(F)(F)F)cc2)C1` [Compound I-302], for which the pIC50 was above 7.00.

On to `O=C(Nc1nc(-c2sc(CO)nc2CO)cs1)C1CN(c2ccc(C(F)(F)F)cn2)C1` [Compound I-303], for which the pIC50 is 6.00 to 7.00.

With `Cc1nc(CO)sc1-c1csc(NC(=O)[C@H]2C[C@@H](N(C)CC(F)(F)F)C2)n1` [Compound I-304], the pIC50 was 6.00 to 7.00.

In the case of `Cc1nc(CO)sc1-c1csc(NC(=O)C2CN(S(=O)(=O)c3ccccc3C(F)(F)F)C2)n1` [Compound I-305], the pIC50 is 6.00 to 7.00.

As to `Cc1nc(CO)sc1-c1csc(NC(=O)C2CN(S(=O)(=O)c3ccc(C(F)(F)F)cc3)C2)n1` [Compound I-306], the pIC50 is above 7.00.

As to `Cc1nc(CO)sc1-c1csc(NC(=O)C2CN(c3ncc(C(F)(F)F)cn3)C2)n1` [Compound I-307], the negative logarithm of the IC50 (pIC50) is above 7.00.

With `Cc1nc(CO)sc1-c1csc(NC(=O)C2CN(C(=O)OCC(F)(F)F)C2)n1` [Compound I-308], the pIC50 is 6.00 to 7.00.

Regarding `Cc1nc(CO)sc1-c1csc(NC(=O)C2CN(c3ccc(C(F)(F)F)nc3)C2)n1` [Compound I-309], the negative-log IC50 (pIC50) is above 7.00.

In the case of `Cc1nc(CO)sc1-c1csc(NC(=O)C2CN(c3cccnc3C(F)(F)F)C2)n1` [Compound I-310], the pIC50 is above 7.00.

With `Cc1nc(CO)sc1-c1csc(NC(=O)C2CN(c3cccnc3Br)C2)n1` [Compound I-311], the pIC50 is above 7.00.

As for `Cc1nc(CO)sc1-c1csc(NC(=O)[C@@H]2C[C@@H](c3ccccc3)CN2C(=O)C(C)C)n1` [Compound I-312], the pIC50 is 6.00 to 7.00.

With `CCOC(=O)N1C[C@H](c2ccccc2)C[C@H]1C(=O)Nc1nc(-c2sc(CO)nc2C)cs1` [Compound I-313], the negative logarithm of the IC50 (pIC50) was above 7.00.

Take `Cc1nc(CO)sc1-c1csc(NC(=O)[C@@H]2C[C@@H](c3ccccc3)CN2C(=O)OCC(F)(F)F)n1` [Compound I-314]: the negative logarithm of the IC50 (pIC50) was above 7.00.

For the molecule `Cc1nc(CO)sc1-c1csc(NC(=O)[C@@H]2C[C@@H](c3ccccc3)CN2C(=O)OC(C)C)n1` [Compound I-315], the pIC50 was above 7.00.

Regarding `Cc1nc(CO)sc1-c1csc(NC(=O)[C@@H]2C[C@@H](c3ccccc3)CN2S(=O)(=O)C(C)C)n1` [Compound I-316], the pIC50 is above 7.00.

Consider `O=C(Nc1nc(-c2sc(CO)nc2CO)cs1)[C@H]1C[C@@H](NCc2ccc(C(F)(F)F)cc2)C1` [Compound I-317], for which the negative logarithm of the IC50 (pIC50) is 5.10 to 6.00.

Consider `Cc1nc(CO)sc1-c1csc(NC(=O)[C@H]2C[C@@H](N(C)Cc3ccc(C(F)(F)F)cc3)C2)n1` [Compound I-318], for which the negative-log IC50 (pIC50) was above 7.00.

With `Cc1nc(CO)sc1-c1csc(NC(=O)[C@H]2C[C@@H](NCc3ccc(C(F)(F)F)cc3)C2)n1` [Compound I-319], the negative logarithm of the IC50 (pIC50) is 6.00 to 7.00.

Take `O=C(Cc1ccc(S(=O)(=O)C(F)(F)F)cc1)Nc1nc(-c2sc(CO)nc2/C=C/CO)cs1` [Compound I-320]: the pIC50 is above 7.00.

Consider `NC(=O)c1nc(CO)c(-c2csc(NC(=O)C3CN(Cc4ccccc4C(F)(F)F)C3)n2)s1` [Compound I-322], for which the negative-log IC50 (pIC50) is 6.00 to 7.00.

With `COC(=O)N1C[C@H](c2ccccc2)C[C@H]1C(=O)Nc1nc(-c2sc(CO)nc2C)cs1` [Compound I-323], the pIC50 is above 7.00.

With `NC(=O)c1nc(CO)c(-c2csc(NC(=O)C3CN(Cc4cccc(C(F)(F)F)c4)C3)n2)s1` [Compound I-324], the pIC50 is 6.00 to 7.00.

With `NC(=O)c1nc(CO)c(-c2csc(NC(=O)C3CN(Cc4ccc(C(F)(F)F)cc4)C3)n2)s1` [Compound I-325], the pIC50 was 6.00 to 7.00.

Turning to `Cc1nc(C)c(-c2csc(NC(=O)[C@H]3C[C@H](Cl)C3)n2)s1` [Compound I-326], the negative logarithm of the IC50 (pIC50) was above 7.00.

With `O=C(Nc1nc(-c2sc(CO)nc2CO)cs1)C1CN(c2ccccc2C(F)(F)F)C1` [Compound I-327], the pIC50 is above 7.00.

As to `Cc1nc(CO)sc1-c1csc(NC(=O)[C@@H]2C[C@@H](c3ccccc3)CN2C(=O)C(C)(C)F)n1` [Compound I-328], the pIC50 was above 7.00.

As to `Cc1nc(CO)sc1-c1csc(NC(=O)C2CN(C(=O)OC(C)(C)C(F)(F)F)C2)n1` [Compound I-329], the pIC50 was above 7.00.

As to `O=C(Nc1nc(-c2sc(CO)nc2CO)cs1)C1CC(Oc2ccc(C(F)(F)F)cc2)C1` (stereo not shown) [Compound I-330], the negative-log IC50 (pIC50) was above 7.00.

For the molecule `Cc1nc(CO)sc1-c1csc(NC(=O)[C@H]2C[C@@H](OCc3ccc(Cl)cc3)C2)n1` [Compound I-331], the pIC50 was above 7.00.

Take `O=C(Nc1nc(-c2sc(CO)nc2CO)cs1)[C@H]1C[C@@H](OCc2ccc(Cl)cc2)C1` [Compound I-332]: the negative logarithm of the IC50 (pIC50) is 6.00 to 7.00.

Consider `Cc1nc(CO)sc1-c1csc(NC(=O)C2CC(OCC3CC3)C2)n1` (stereo not shown) [Compound I-333], for which the pIC50 is 5.10 to 6.00.

As to `N#CCc1nc(CO)sc1-c1csc(NC(=O)C2CN(c3ccc(C(F)(F)F)cc3)C2)n1` [Compound I-334], the negative-log IC50 (pIC50) is above 7.00.

For the molecule `Cc1nc(CO)sc1-c1csc(NC(=O)[C@H]2C[C@@H](OCc3ccc(C(F)(F)F)cc3)C2)n1` [Compound I-335], the negative-log IC50 (pIC50) is above 7.00.

Consider `O=C(Nc1nc(-c2sc(CO)nc2CO)cs1)[C@@H]1C[C@@H](c2ccccc2)CN1C(=O)OCC(F)(F)F` [Compound I-336], for which the pIC50 is 6.00 to 7.00.

Consider `O=C(Nc1nc(-c2sc(CO)nc2CO)cs1)[C@@H]1C[C@@H](c2ccccc2)CN1CC(F)(F)F` [Compound I-337], for which the pIC50 is 5.10 to 6.00.

For `O=C(Nc1nc(-c2sc(CO)nc2CO)cs1)[C@@H]1C[C@@H](c2ccccc2)CN1S(=O)(=O)C(F)(F)F` [Compound I-338], the pIC50 is 6.00 to 7.00.

Consider `O=C(Nc1nc(-c2sc(CO)nc2CO)cs1)C1CC(OCC2CC2)C1` (stereo not shown) [Compound I-339], for which the negative logarithm of the IC50 (pIC50) was 5.10 to 6.00.

For `NCc1nc(CO)sc1-c1csc(NC(=O)C2CN(c3ccc(C(F)(F)F)cc3)C2)n1` [Compound I-340], the negative logarithm of the IC50 (pIC50) is 6.00 to 7.00.

With `CC(C)c1ccc(N2CC(C(=O)Nc3nc(-c4sc(CO)nc4CO)cs3)C2)cc1` [Compound I-341], the pIC50 is above 7.00.

For the molecule `O=C(Nc1nc(-c2sc(CO)nc2CO)cs1)C1CN(c2ccccc2Cl)C1` [Compound I-342], the negative logarithm of the IC50 (pIC50) is 6.00 to 7.00.

`O=C(Nc1nc(-c2sc(CO)nc2CO)cs1)C1CN(c2ccc(Cl)cc2)C1` [Compound I-343]: the pIC50 was above 7.00.

As to `CC(C)OC(=O)N1C[C@H](c2ccccc2)C[C@H]1C(=O)Nc1nc(-c2sc(CO)nc2CO)cs1` [Compound I-344], the pIC50 is 6.00 to 7.00.

As for `NC(=O)NCc1nc(CO)sc1-c1csc(NC(=O)C2CN(c3ccc(C(F)(F)F)cc3)C2)n1` [Compound I-345], the pIC50 is above 7.00.

In the case of `Cc1nc(CO)sc1-c1csc(NC(=O)[C@H]2C[C@@H](OCc3ccccc3C(F)(F)F)C2)n1` [Compound I-346], the pIC50 is above 7.00.

For the molecule `O=C(Nc1nc(-c2sc(CO)nc2CO)cs1)[C@H]1C[C@@H](OCc2ccccc2C(F)(F)F)C1` [Compound I-347], the pIC50 is 6.00 to 7.00.

As to `O=C(Nc1nc(-c2sc(CO)nc2CCCO)cs1)C1CN(c2ccc(C(F)(F)F)cc2)C1` [Compound I-348], the pIC50 is above 7.00.

For `CC(C)(F)C(=O)N1C[C@H](c2ccccc2)C[C@H]1C(=O)Nc1nc(-c2sc(CO)nc2CO)cs1` [Compound I-349], the negative logarithm of the IC50 (pIC50) is 6.00 to 7.00.

On to `CC(C)OC(=O)NCc1nc(CO)sc1-c1csc(NC(=O)C2CN(c3ccc(C(F)(F)F)cc3)C2)n1` [Compound I-350], for which the pIC50 was above 7.00.

With `O=C(O)CCc1nc(CO)sc1-c1csc(NC(=O)C2CN(c3ccc(C(F)(F)F)cc3)C2)n1` [Compound I-351], the pIC50 is 5.10 to 6.00.

In the case of `O=C(Nc1nc(-c2sc(CO)nc2CCCN2CCOCC2)cs1)C1CN(c2ccc(C(F)(F)F)cc2)C1` [Compound I-352], the pIC50 is above 7.00.

In the case of `CC(=O)NCc1nc(CO)sc1-c1csc(NC(=O)C2CN(c3ccc(C(F)(F)F)cc3)C2)n1` [Compound I-353], the negative-log IC50 (pIC50) is above 7.00.

In the case of `Cc1nc(C)c(-c2csc(NC(=O)[C@H]3C[C@@H](OCc4ccc(C(F)(F)F)cc4)C3)n2)s1` [Compound I-354], the pIC50 was above 7.00.

With `Cc1nc(CO)sc1-c1csc(NC(=O)[C@H]2C[C@@H](C(F)F)C2)n1` [Compound I-355], the negative logarithm of the IC50 (pIC50) is 6.00 to 7.00.

Consider `Cc1nc(CO)sc1-c1csc(NC(=O)[C@H]2C[C@@H](OCC(F)(F)F)C2)n1` [Compound I-356], for which the negative logarithm of the IC50 (pIC50) is 6.00 to 7.00.

For `Cc1nc(CO)sc1-c1csc(NC(=O)[C@H]2C[C@H](OCC(F)(F)F)C2)n1` [Compound I-357], the negative logarithm of the IC50 (pIC50) was above 7.00.

For `NC(=O)Cc1nc(CO)sc1-c1csc(NC(=O)Cc2ccc(S(=O)(=O)C(F)(F)F)cc2)n1` [Compound I-358], the pIC50 was 6.00 to 7.00.

For `N#CCc1nc(CO)sc1-c1csc(NC(=O)Cc2ccc(S(=O)(=O)C(F)(F)F)cc2)n1` [Compound I-359], the pIC50 was above 7.00.

Turning to `O=C(Cc1ccc(S(=O)(=O)C(F)(F)F)cc1)Nc1nc(-c2sc(CO)nc2CCCO)cs1` [Compound I-360], the negative logarithm of the IC50 (pIC50) was above 7.00.

With `Cc1nc(CO)sc1-c1csc(NC(=O)C2CC(N3CCC(F)(F)C3)C2)n1` (stereo not shown) [Compound I-361], the negative-log IC50 (pIC50) was 5.10 to 6.00.

For the molecule `Cc1nc(CO)sc1-c1csc(NC(=O)C2CC(N3CCC(F)(F)C3)C2)n1` (stereo not shown) [Compound I-362], the pIC50 is 5.10 to 6.00.

Turning to `O=C(Cc1ccc(S(=O)(=O)C(F)(F)F)cc1)Nc1nc(-c2sc(CO)nc2CCC(=O)N2CCOCC2)cs1` [Compound I-363], the pIC50 is 6.00 to 7.00.

Take `Cc1nc(C)c(-c2csc(N(CCCN3CCOCC3)C(=O)Cc3ccc(S(=O)(=O)C(F)(F)F)cc3)n2)s1` [Compound I-364]: the pIC50 was 5.10 to 6.00.
